Source: patent US9682995B2, “Amino-substituted isothiazoles” (BAYER PHARMA AKTIENGESELLSCHAFT, priority 2013, dated 2017)

Assays:
Experiment in all cases: Kinase Profiling (KINOMEscan)
Format in all cases: binding
[1] = target: 456 kinases (of these 395 non-mutant kinases) (Homo sapiens, UniProt Q9HCP0); conditions: CSNK1G1; 10 μM
[2] = target: 456 kinases (of these 395 non-mutant kinases) (Homo sapiens, UniProt Q9UEE5); conditions: DRAK1; 10 μM
[3] = target: 456 kinases (of these 395 non-mutant kinases) (Homo sapiens, UniProt Q13163); conditions: MEK5; 10 μM
[4] = target: 456 kinases (of these 395 non-mutant kinases) (Homo sapiens, UniProt P52564); conditions: MEK6; 10 μM
[5] = target: 456 kinases (of these 395 non-mutant kinases) (Homo sapiens, UniProt P53355); conditions: DAPK1; 10 μM
[6] = target: 456 kinases (of these 395 non-mutant kinases) (Homo sapiens, UniProt P49137); conditions: MAPKAPK2; 10 μM
[7] = target: 456 kinases (of these 395 non-mutant kinases) (Homo sapiens, UniProt O14757); conditions: CHEK1; 10 μM
[8] = target: 456 kinases (of these 395 non-mutant kinases) (Homo sapiens, UniProt Q9BUB5); conditions: MKNK1; 10 μM
[9] = target: 456 kinases (of these 395 non-mutant kinases) (Homo sapiens, UniProt P08581); conditions: MET; 10 μM
[10] = target: 456 kinases (of these 395 non-mutant kinases) (Homo sapiens, UniProt P36888, D835H); conditions: FLT3(D835H); 10 μM
[11] = target: 456 kinases (of these 395 non-mutant kinases) (Homo sapiens, UniProt P54764); conditions: EPHA4; 10 μM
[12] = target: 456 kinases (of these 395 non-mutant kinases) (Homo sapiens, UniProt Q16288); conditions: TRKC; 10 μM
[13] = target: 456 kinases (of these 395 non-mutant kinases) (Homo sapiens, UniProt Q16566); conditions: CAMK4; 10 μM
[14] = target: 456 kinases (of these 395 non-mutant kinases) (Homo sapiens, UniProt Q96L34); conditions: MARK4; 10 μM
[15] = target: 456 kinases (of these 395 non-mutant kinases) (Homo sapiens, UniProt Q16584); conditions: MLK3; 10 μM
[16] = target: 456 kinases (of these 395 non-mutant kinases) (Homo sapiens, UniProt Q02763); conditions: TIE2; 10 μM
[17] = target: 456 kinases (of these 395 non-mutant kinases) (Homo sapiens, UniProt Q9NSY1); conditions: BIKE; 10 μM
[18] = system: 456 kinases (of these 395 non-mutant kinases); conditions: 10 μM
[19] = target: 456 kinases (of these 395 non-mutant kinases) (Homo sapiens, UniProt P35590); conditions: TIE1; 10 μM
[20] = target: 456 kinases (of these 395 non-mutant kinases) (Homo sapiens, UniProt P33981); conditions: TTK; 10 μM
[21] = target: 456 kinases (of these 395 non-mutant kinases) (Homo sapiens, UniProt Q8N4C8); conditions: MINK; 10 μM
[22] = target: 456 kinases (of these 395 non-mutant kinases) (Homo sapiens, UniProt P19525); conditions: PRKR; 10 μM
[23] = target: 456 kinases (of these 395 non-mutant kinases) (Homo sapiens, UniProt Q96Q40); conditions: PFTAIRE2; 10 μM
[24] = target: 456 kinases (of these 395 non-mutant kinases) (Homo sapiens, UniProt O14936); conditions: CASK; 10 μM
[25] = target: 456 kinases (of these 395 non-mutant kinases) (Homo sapiens, UniProt P00519, F317L); conditions: 10 μM
[26] = target: 456 kinases (of these 395 non-mutant kinases) (Homo sapiens, UniProt Q06187); conditions: BTK; 10 μM
[27] = target: 456 kinases (of these 395 non-mutant kinases) (Homo sapiens, UniProt P42336, E545A); conditions: PIK3CA(E545A); 10 μM
[28] = target: 456 kinases (of these 395 non-mutant kinases) (Homo sapiens, UniProt Q8NE63); conditions: HIPK4; 10 μM
[29] = target: 456 kinases (of these 395 non-mutant kinases) (Homo sapiens, UniProt Q8TDX7); conditions: NEK7; 10 μM
[30] = target: 456 kinases (of these 395 non-mutant kinases) (Homo sapiens, UniProt Q8NEV4); conditions: MYO3A; 10 μM
[31] = target: 456 kinases (of these 395 non-mutant kinases) (Homo sapiens, UniProt Q96D53); conditions: ADCK4; 10 μM
[32] = target: 456 kinases (of these 395 non-mutant kinases) (Homo sapiens, UniProt Q9UQ88); conditions: CDC2L2; 10 μM

Chain of 456 kinases (of these 395 non-mutant kinases) (Homo sapiens, UniProt Q16288) (Q16288 32-839 limits assumed, change not shown): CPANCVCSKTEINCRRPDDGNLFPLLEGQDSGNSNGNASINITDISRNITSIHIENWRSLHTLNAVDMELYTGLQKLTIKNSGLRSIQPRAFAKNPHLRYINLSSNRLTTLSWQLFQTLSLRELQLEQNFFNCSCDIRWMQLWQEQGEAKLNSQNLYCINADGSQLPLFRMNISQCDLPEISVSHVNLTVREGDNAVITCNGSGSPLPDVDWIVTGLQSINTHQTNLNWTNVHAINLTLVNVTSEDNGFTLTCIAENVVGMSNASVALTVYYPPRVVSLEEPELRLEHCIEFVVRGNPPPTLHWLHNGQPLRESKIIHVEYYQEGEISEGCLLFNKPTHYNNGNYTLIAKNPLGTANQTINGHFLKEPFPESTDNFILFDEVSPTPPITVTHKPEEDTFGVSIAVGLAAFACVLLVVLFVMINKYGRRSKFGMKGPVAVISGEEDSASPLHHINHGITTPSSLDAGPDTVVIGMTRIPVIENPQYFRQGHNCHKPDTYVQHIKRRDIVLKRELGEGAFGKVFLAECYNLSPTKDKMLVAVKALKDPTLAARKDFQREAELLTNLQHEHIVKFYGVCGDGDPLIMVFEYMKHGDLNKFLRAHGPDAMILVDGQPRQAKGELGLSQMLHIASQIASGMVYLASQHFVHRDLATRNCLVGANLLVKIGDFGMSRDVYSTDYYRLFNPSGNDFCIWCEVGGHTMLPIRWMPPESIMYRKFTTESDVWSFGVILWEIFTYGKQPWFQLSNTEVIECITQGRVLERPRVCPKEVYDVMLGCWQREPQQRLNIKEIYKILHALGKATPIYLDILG
Chain of 456 kinases (of these 395 non-mutant kinases) (Homo sapiens, UniProt Q06187) (Q06187 2-659 limits assumed, stated change not applied): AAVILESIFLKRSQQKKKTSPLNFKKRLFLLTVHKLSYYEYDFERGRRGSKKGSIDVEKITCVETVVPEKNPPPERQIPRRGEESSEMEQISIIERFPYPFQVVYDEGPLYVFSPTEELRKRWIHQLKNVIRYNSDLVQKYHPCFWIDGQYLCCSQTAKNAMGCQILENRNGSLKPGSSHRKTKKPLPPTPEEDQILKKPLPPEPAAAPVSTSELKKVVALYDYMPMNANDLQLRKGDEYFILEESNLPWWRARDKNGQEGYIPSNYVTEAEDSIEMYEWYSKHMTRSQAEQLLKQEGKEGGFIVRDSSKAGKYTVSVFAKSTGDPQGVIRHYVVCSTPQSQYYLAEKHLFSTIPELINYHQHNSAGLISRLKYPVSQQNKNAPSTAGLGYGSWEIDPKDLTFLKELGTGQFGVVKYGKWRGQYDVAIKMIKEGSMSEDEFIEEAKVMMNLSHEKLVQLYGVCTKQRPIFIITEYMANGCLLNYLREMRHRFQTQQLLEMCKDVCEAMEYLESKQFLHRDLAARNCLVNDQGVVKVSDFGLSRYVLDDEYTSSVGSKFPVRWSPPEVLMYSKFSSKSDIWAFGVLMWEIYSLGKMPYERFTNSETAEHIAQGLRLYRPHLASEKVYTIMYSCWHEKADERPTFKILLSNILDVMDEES
Chain of 456 kinases (of these 395 non-mutant kinases) (Homo sapiens, UniProt P54764) (P54764 20-986 limits assumed, change not shown): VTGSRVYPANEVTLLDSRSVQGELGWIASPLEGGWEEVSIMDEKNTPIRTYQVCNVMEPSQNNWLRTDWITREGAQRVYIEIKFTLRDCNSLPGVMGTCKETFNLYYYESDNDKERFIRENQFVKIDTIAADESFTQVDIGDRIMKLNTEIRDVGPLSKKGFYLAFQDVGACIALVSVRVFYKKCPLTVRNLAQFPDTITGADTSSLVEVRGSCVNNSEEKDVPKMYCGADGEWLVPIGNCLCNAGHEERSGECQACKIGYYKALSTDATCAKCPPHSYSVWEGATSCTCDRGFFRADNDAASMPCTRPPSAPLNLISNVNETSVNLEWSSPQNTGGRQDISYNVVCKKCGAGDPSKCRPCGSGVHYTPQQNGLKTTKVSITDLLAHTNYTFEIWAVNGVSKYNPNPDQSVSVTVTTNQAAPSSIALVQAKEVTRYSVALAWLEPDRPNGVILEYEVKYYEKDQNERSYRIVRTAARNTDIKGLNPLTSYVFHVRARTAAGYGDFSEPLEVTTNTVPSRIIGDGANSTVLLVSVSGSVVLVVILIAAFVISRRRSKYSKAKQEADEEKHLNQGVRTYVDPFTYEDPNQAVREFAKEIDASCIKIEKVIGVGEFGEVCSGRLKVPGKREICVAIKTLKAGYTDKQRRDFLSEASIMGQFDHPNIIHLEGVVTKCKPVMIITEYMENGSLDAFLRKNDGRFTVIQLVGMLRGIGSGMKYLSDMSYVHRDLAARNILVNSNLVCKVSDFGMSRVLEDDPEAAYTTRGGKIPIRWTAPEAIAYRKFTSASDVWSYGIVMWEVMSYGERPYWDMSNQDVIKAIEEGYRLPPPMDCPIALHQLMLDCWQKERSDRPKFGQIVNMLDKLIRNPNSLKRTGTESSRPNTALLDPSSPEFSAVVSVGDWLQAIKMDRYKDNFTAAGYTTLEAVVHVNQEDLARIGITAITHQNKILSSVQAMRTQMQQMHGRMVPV
Chain of 456 kinases (of these 395 non-mutant kinases) (Homo sapiens, UniProt P08581) (P08581 25-1390 limits assumed, stated change not applied): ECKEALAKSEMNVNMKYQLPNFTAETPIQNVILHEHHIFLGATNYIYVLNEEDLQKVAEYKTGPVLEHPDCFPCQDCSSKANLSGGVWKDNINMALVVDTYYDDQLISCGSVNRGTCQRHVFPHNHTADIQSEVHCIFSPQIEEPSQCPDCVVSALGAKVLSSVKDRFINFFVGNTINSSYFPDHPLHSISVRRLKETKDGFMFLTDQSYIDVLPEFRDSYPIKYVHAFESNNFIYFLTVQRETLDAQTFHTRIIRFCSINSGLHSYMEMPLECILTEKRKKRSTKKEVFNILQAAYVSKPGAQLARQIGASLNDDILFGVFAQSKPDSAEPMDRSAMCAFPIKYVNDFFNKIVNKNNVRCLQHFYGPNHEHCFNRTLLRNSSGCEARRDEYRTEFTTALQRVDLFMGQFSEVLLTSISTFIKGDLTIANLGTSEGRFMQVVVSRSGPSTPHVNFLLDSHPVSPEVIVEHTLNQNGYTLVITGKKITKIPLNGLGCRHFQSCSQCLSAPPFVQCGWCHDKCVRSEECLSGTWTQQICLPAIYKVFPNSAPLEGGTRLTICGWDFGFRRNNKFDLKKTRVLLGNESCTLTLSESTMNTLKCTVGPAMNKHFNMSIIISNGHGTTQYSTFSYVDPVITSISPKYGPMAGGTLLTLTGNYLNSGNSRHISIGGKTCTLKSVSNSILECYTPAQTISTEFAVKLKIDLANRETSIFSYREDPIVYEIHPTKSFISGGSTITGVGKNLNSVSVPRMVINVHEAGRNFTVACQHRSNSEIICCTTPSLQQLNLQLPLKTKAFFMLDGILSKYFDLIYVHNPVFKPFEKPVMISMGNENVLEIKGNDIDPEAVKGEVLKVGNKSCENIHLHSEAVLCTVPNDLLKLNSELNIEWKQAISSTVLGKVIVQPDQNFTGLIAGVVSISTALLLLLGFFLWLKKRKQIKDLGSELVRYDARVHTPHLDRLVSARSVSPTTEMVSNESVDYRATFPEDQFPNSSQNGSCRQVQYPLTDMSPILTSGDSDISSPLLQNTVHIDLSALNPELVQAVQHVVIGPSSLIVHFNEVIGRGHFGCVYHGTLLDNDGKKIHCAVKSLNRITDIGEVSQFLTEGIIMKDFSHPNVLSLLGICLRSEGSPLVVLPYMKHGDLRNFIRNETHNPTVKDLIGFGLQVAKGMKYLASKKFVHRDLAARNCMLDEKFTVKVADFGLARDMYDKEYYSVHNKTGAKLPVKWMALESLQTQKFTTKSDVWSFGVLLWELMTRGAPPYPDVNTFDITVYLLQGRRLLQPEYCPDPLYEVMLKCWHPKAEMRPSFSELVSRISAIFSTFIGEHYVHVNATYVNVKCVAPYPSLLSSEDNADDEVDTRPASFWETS
Chain of 456 kinases (of these 395 non-mutant kinases) (Homo sapiens, UniProt P19525) (P19525 2-551 limits assumed, change not shown): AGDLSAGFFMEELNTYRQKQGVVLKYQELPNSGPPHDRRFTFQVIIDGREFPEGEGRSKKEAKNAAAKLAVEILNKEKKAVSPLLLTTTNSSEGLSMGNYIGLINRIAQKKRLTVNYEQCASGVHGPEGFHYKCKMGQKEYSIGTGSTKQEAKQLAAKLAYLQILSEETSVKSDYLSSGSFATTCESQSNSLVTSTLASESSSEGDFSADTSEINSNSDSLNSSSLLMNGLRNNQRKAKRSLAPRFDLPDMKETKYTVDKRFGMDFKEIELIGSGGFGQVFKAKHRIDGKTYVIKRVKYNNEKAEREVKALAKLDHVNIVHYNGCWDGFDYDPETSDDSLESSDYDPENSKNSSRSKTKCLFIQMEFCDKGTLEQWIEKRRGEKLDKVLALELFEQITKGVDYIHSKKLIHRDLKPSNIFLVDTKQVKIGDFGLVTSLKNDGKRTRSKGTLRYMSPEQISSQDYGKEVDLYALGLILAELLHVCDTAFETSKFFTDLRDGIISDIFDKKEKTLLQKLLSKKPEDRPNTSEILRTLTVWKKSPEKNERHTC

With `CCc1ccccc1NC(=O)c1c(C)nsc1Nc1cnc2cc(F)ccc2n1` [Example 20, N-(2-Ethylphenyl)-5-[(6-fluoroquinoxalin-2-yl)amino]-3-methyl-1,2-thiazole-4-carboxamide] the “% Ctrl @ 10 μM” value [1] was 90 % Ctrl, the “% Ctrl @ 10 μM” value [2] was 100 % Ctrl and the “% Ctrl @ 10 μM” value [3] was 100 % Ctrl. For the same compound, the “% Ctrl @ 10 μM” value [4] was 95 % Ctrl, the “% Ctrl @ 10 μM” value [5] was 88 % Ctrl and the “% Ctrl @ 10 μM” value [6] was 89 % Ctrl. The “% Ctrl @ 10 μM” value [7] was 73 % Ctrl, the “% Ctrl @ 10 μM” value [8] was 100 % Ctrl and the “% Ctrl @ 10 μM” value [9] was 100 % Ctrl. For the same compound, the “% Ctrl @ 10 μM” value [10] was 83 % Ctrl, the “% Ctrl @ 10 μM” value [11] was 100 % Ctrl and the “% Ctrl @ 10 μM” value [12] was 93 % Ctrl. The “% Ctrl @ 10 μM” value [13] was 100 % Ctrl, the “% Ctrl @ 10 μM” value [14] was 100 % Ctrl and the “% Ctrl @ 10 μM” value [15] was 90 % Ctrl. For the same compound, the “% Ctrl @ 10 μM” value [16] was 100 % Ctrl, the “% Ctrl @ 10 μM” value [17] was 62 % Ctrl and the “% Ctrl @ 10 μM” value ([18]; EGFR(L747-E749del, A750P)) was 94 % Ctrl. The “% Ctrl @ 10 μM” value ([18]; EGFR(L747-S752del, P753S)) was 100 % Ctrl, the “% Ctrl @ 10 μM” value ([18]; EGFR(L747-T751del,Sins)) was 100 % Ctrl and the “% Ctrl @ 10 μM” value ([18]; FLT3(ITD)) was 67 % Ctrl. The “% Ctrl @ 10 μM” value [19] was 100 % Ctrl, the “% Ctrl @ 10 μM” value [20] was 72 % Ctrl and the “% Ctrl @ 10 μM” value [21] was 100 % Ctrl. For the same compound, the “% Ctrl @ 10 μM” value [22] was 100 % Ctrl, the “% Ctrl @ 10 μM” value [23] was 84 % Ctrl and the “% Ctrl @ 10 μM” value [24] was 87 % Ctrl. The “% Ctrl @ 10 μM” value ([25]; ABL1(F317L)-nonphosphorylated) was 100 % Ctrl, the “% Ctrl @ 10 μM” value ([25]; ABL1(F317L)-phosphorylated) was 100 % Ctrl and the “% Ctrl @ 10 μM” value [26] was 98 % Ctrl. For the same compound, the “% Ctrl @ 10 μM” value [27] was 95 % Ctrl, the “% Ctrl @ 10 μM” value [28] was 97 % Ctrl and the “% Ctrl @ 10 μM” value [29] was 79 % Ctrl. For the same compound, the “% Ctrl @ 10 μM” value [30] was 86 % Ctrl, the “% Ctrl @ 10 μM” value [31] was 100 % Ctrl and the “% Ctrl @ 10 μM” value [32] was 85 % Ctrl.
